Data on 35 compounds can be found in patent publication US20090054392A1, “NAPHTHYLPYRIMIDINE, NAPHTHYLPYRAZINE AND NAPHTHYLPYRIDAZINE ANALOGS AND THEIR USE AS AGONISTS OF THE WNT-BETA-CATENIN CELLULAR MESSAGING SYSTEM” (Wyeth, priority 2007, published 2009).

Molecules are shown by their SMILES.

The series has as its system Dkk1-LRP5-TCF-Luciferase. Kind of series: Functional Dkk1-LRP5-TCF-Luciferase Assay in U2OS Cells. The settings on record: for EC50 / fold induction at 2 µM / fold induction at 20 µM: Homo sapiens, U2OS; for fold induction at 2 µM: read-out: B = TCF ACTIVITY/DMSO CONTROL Fold induction @ 2.0 uM, 2.0 uM compound; for fold induction at 20 µM: read-out: C = TCF ACTIVITY/DMSO CONTROL Fold induction @ 20.0 uM, 20.0 uM compound; for A = MAX FOLD Induction/DMSO CONTROL: maximum fold induction over DMSO control.

Procedure: Biological Evaluation—Functional Dkk1-LRP5-TCF-Luciferase Assay in U2OS Cells
Frozen U2OS-Dkk1-HTS Reporter cells generation: U2OS Human Bone derived cells (Osteosarcoma) are grown in McCoy's 5A Medium (Modified), with L -glutamine (GIBCO Cat No. 16600-082)+1% Pen-Strep+5% FBS) plated at 1×10^7 cells/T175 cm flask. The next day, the cells are co-transfected overnight with the following plasmids: (a) Test reporter (16×TCF-TK-FireFly-Luci), (b) Internal Control Reporter (TK-Renilla-Luci), (c) Wnt3a and (d) Dkk1. GIBCO's Lipofectamine 2000 and OptiMEM are used for the transfection. After a minimum of 4 hr of transfection at 37° C., the plasmid-transfected cells are trypsinized, counted, and suspended in freezing medium (95% FBS+5% DMSO). The reporter cells are frozen at 1×10^7/ml concentrations, aliquoted into 0.5 ml or 2.5 ml/tube and stored at 70° C.
The following day, test compounds are added under HTS setup by Plate Track into 384 well plates (white, TC treated, Falcon plate) such that the final concentration of the compounds in 20 μL/well cell will be 5 μg/ml (final concentration of DMSO=0.25% and final compound concentration=20 μM). Vials of frozen reporter cells are thawed by warming the vial in a 37° C. water bath for 60-120 seconds with some shaking until the cells formed a suspension. The thawed cells are transferred into a cold 50 ml (or larger) tube and mixed well by gentle pipetting. The appropriate amount of cold Phenol Red Free RPMI medium-1640 (GIBCO, Cat #11835-030) with L-glutamine is added, both with ˜5% FBS (GIBCO-BRL, Cat. #16000-044), so that 20 μl of the final cell suspension will contain ˜5,000 cells. The cell dilution is done such that the final concentration of FBS is ˜5%.
Diluted cells (20 μl) are added into each well in a 384 well plate. The plate is incubated at 37° C. under 5% CO2 for ˜20 h. Bright-Glo substrate, 2.5 μl/well is added, and the Fire Fly Luciferase is measured using VLUX (60 second exposure) immediately after the substrate is added. Test compounds are dissolved in DMSO (100%) and added to specified wells. Raw luciferase signal data obtained as relative luminescence units (RLUs) for the test compounds are normalized to the signal of the mean of the sample reporter cell plate with DMSO.

The term EC50 denotes the concentration at which the effect is half-maximal. Low readings indicate a more potent agent, high ones a less potent agent. On to `NCC1CCN(c2ccnc(-c3ccc4ccccc4c3)n2)CC1` [1-{1-[2-(2-naphthyl)pyrimidin-4-yl]piperidin-4-yl}methanamine], for which the EC50 was 787 nM, the fold induction at 2 µM is 3.22, the fold induction at 20 µM was 0.003 and the “A = MAX FOLD Induction/DMSO CONTROL” value is reported as 5.673 fold.

Regarding `NCC1CCN(c2nccc(-c3ccc4ccccc4c3)n2)c2ccccc21` (centres unmarked) [1-{1-[4-(2-naphthyl)pyrimidin-2-yl]-1,2,3,4-tetrahydroquinolin-4-yl}methanamine], the “A = MAX FOLD Induction/DMSO CONTROL” value is reported as 1.820 fold.

For the compound `NCC1CN(c2nccc(-c3ccc4ccccc4c3)n2)C1` [1-{1-[4-(2-naphthyl)pyrimidin-2-yl]azetidin-3-yl}methanamine], the EC50 was determined as 22900 nM, the fold induction at 2 µM was found to be 2.56, the fold induction at 20 µM is 0.71 and the “A = MAX FOLD Induction/DMSO CONTROL” value was 3.080 fold.

For `O=c1[nH]c2ccccc2n1C1CCN(c2nccc(-c3ccc4ccccc4c3)n2)CC1` [1-{1-[4-(2-naphthyl)pyrimidin-2-yl]piperidin-4-yl}-1,3-dihydro-2H-benzimidazol-2-one], the fold induction at 2 µM was determined as 1.03 and the fold induction at 20 µM stood at 0.01.

Take `CC(N)C1CCN(c2nccc(-c3ccc4ccccc4c3)n2)CC1` (centres unmarked) [1-{1-[4-(2-naphthyl)pyrimidin-2-yl]piperidin-4-yl}ethanamine]: the EC50 amounted to 1090 nM, the fold induction at 2 µM is 2.33, the fold induction at 20 µM worked out at 0.006 and the “A = MAX FOLD Induction/DMSO CONTROL” value is listed as 2.891 fold.

Take `NCC1CCN(c2nccc(-c3ccc4ccccc4c3)n2)C1` (centres unmarked) [1-{1-[4-(2-naphthyl)pyrimidin-2-yl]pyrrolidin-3-yl}methanamine]: the EC50 was found to be 2260 nM, the fold induction at 2 µM turned out to be 4.53, the fold induction at 20 µM turned out to be 0.01 and the “A = MAX FOLD Induction/DMSO CONTROL” value is listed as 4.063 fold.

Take `CC(C)COc1ccc2cc(-c3ccnc(N4CCC(CN)CC4)n3)ccc2c1` [1-{1-[4-(6-isobutoxy-2-naphthyl)pyrimidin-2-yl]piperidin-4-yl}methanamine]: the fold induction at 2 µM came out at 1.54.

For the compound `COc1ccc2cc(-c3ccnc(N4CCC(CN)CC4)n3)ccc2c1` [1-{1-[4-(6-methoxy-2-naphthyl)pyrimidin-2-yl]piperidin-4-yl}methanamine], the EC50 was 1060 nM, the fold induction at 2 µM came out at 2.27 and the “A = MAX FOLD Induction/DMSO CONTROL” value was 3.233 fold.

As to `Cc1ccc2cc(-c3ccnc(N4CCC(CN)CC4)n3)ccc2c1` [1-{1-[4-(6-methyl-2-naphthyl)pyrimidin-2-yl]piperidin-4-yl}methanamine], the EC50 stood at 1220 nM, the fold induction at 2 µM worked out at 2.88 and the “A = MAX FOLD Induction/DMSO CONTROL” value was 2.820 fold.

For the compound `NCC1CCN(c2nccc(-c3ccc4cc(-c5ccccc5)ccc4c3)n2)CC1` [1-{1-[4-(6-phenyl-2-naphthyl)pyrimidin-2-yl]piperidin-4-yl}methanamine], the fold induction at 2 µM was 1.63.

`CCCOc1ccc2cc(-c3ccnc(N4CCC(CN)CC4)n3)ccc2c1` [1-{1-[4-(6-propoxy-2-naphthyl)pyrimidin-2-yl]piperidin-4-yl}methanamine]: the fold induction at 2 µM was found to be 1.33.

Take `C=Cc1ccc2cc(-c3ccnc(N4CCC(CN)CC4)n3)ccc2c1` [1-{1-[4-(6-vinyl-2-naphthyl)pyrimidin-2-yl]piperidin-4-yl}methanamine]: the fold induction at 2 µM stood at 1.21.

On to `NCC1CCN(c2cc(-c3ccc4ccccc4c3)cnn2)CC1` [1-{1-[5-(2-naphthyl)pyridazin-3-yl]piperidin-4-yl}methanamine], for which the fold induction at 2 µM was 1.58 and the fold induction at 20 µM was determined as 0.4.

For `NCC1CCN(c2ncc(-c3ccc4ccccc4c3)cn2)CC1` [1-{1-[5-(2-naphthyl)pyrimidin-2-yl]piperidin-4-yl}methanamine], the EC50 amounted to 1200 nM, the fold induction at 2 µM worked out at 3.1 and the “A = MAX FOLD Induction/DMSO CONTROL” value is given as 2.900 fold.

With `NCC1CCN(c2cncc(-c3ccc4ccccc4c3)n2)CC1` [1-{1-[6-(2-naphthyl)pyrazin-2-yl]piperidin-4-yl}methanamine], the concentration giving a half-maximal response (EC50) is 1160 nM, the fold induction at 2 µM is 1.6 and the “A = MAX FOLD Induction/DMSO CONTROL” value came out at 2.920 fold.

On to `NCC1CCN(c2cc(-c3ccc4ccccc4c3)ncn2)CC1` [1-{1-[6-(2-naphthyl)pyrimidin-4-yl]piperidin-4-yl}methanamine], for which the EC50 worked out at 1590 nM, the fold induction at 2 µM turned out to be 2.79, the fold induction at 20 µM is 1 and the “A = MAX FOLD Induction/DMSO CONTROL” value is 3.226 fold.

`NCc1ccc(-c2nccc(-c3ccc4ccccc4c3)n2)cc1` [1-{4-[4-(2-naphthyl)pyrimidin-2-yl]phenyl}methanamine]: the fold induction at 2 µM is 2.5.

For `NCC1CC2CCC(C1)N2c1nccc(-c2ccc3ccccc3c2)n1` (centres unmarked) [1-{8-[4-(2-naphthyl)pyrimidin-2-yl]-8-azabicyclo[3.2.1]oct-3-yl}methanamine], the EC50 was determined as 550 nM and the fold induction at 2 µM is 1.5.

For `NC[C@@H]1C[C@@H]2C[C@H]1CN2c1nccc(-c2ccc3ccccc3c2)n1` [1-{(1R,4R,5R)-2-[4-(2-naphthyl)pyrimidin-2-yl]-2-azabicyclo[2.2.1]hept-5-yl}methanamine], the fold induction at 2 µM was 1.4.

As to `NC[C@H]1C[C@@H]2C[C@H]1CN2c1nccc(-c2ccc3ccccc3c2)n1` [1-{(1R,4R,5S)-2-[4-(2-naphthyl)pyrimidin-2-yl]-2-azabicyclo[2.2.1]hept-5-yl}methanamine], the fold induction at 2 µM was determined as 1.8.

Regarding `NC[C@@H]1C[C@H]2C[C@@H]1CN2c1nccc(-c2ccc3ccccc3c2)n1` [1-{(1S,4S,5R)-2-[4-(2-naphthyl)pyrimidin-2-yl]-2-azabicyclo[2.2.1]hept-5-yl}methanamine], the fold induction at 2 µM came to 1.1.

In the case of `NC[C@H]1C[C@H]2C[C@@H]1CN2c1nccc(-c2ccc3ccccc3c2)n1` [1-{(1S,4S,5S)-2-[4-(2-naphthyl)pyrimidin-2-yl]-2-azabicyclo[2.2.1]hept-5-yl}methanamine], the fold induction at 2 µM was determined as 1.2.

Consider `c1ccc2cc(-c3ccnc(N4CC[C@@H](N5CCCCCC5)C4)n3)ccc2c1` [1-{(3R)-1-[4-(2-naphthyl)pyrimidin-2-yl]pyrrolidin-3-yl}azepane], for which the fold induction at 2 µM came out at 1.25 and the fold induction at 20 µM was 1.3.

As to `OC1CCCN([C@@H]2CCN(c3nccc(-c4ccc5ccccc5c4)n3)C2)C1` (stereo partly drawn) [1-{(3R)-1-[4-(2-naphthyl)pyrimidin-2-yl]pyrrolidin-3-yl}piperidin-3-ol], a half-maximal response (EC50) required 3640 nM, the fold induction at 2 µM was found to be 2.06, the fold induction at 20 µM turned out to be 1.05 and the “A = MAX FOLD Induction/DMSO CONTROL” value was 5.120 fold.

For the compound `OC1CCN([C@@H]2CCN(c3nccc(-c4ccc5ccccc5c4)n3)C2)CC1` [1-{(3R)-1-[4-(2-naphthyl)pyrimidin-2-yl]pyrrolidin-3-yl}piperidin-4-ol], the fold induction at 2 µM was determined as 1.44 and the fold induction at 20 µM came to 0.14.

In the case of `c1ccc2cc(-c3ccnc(N4CC[C@H](N5CCCCCC5)C4)n3)ccc2c1` [1-{(3S)-1-[4-(2-naphthyl)pyrimidin-2-yl]pyrrolidin-3-yl}azepane], the fold induction at 2 µM stood at 3.97 and the “A = MAX FOLD Induction/DMSO CONTROL” value is given as 3.220 fold.

Take `OC1CCCN([C@H]2CCN(c3nccc(-c4ccc5ccccc5c4)n3)C2)C1` (stereo partly drawn) [1-{(3S)-1-[4-(2-naphthyl)pyrimidin-2-yl]pyrrolidin-3-yl}piperidin-3-ol]: the EC50 came out at 3550 nM, the fold induction at 2 µM was determined as 2.48, the fold induction at 20 µM is 0.13 and the “A = MAX FOLD Induction/DMSO CONTROL” value came out at 6.735 fold.

For the compound `OC1CCN([C@H]2CCN(c3nccc(-c4ccc5ccccc5c4)n3)C2)CC1` [1-{(3S)-1-[4-(2-naphthyl)pyrimidin-2-yl]pyrrolidin-3-yl}piperidin-4-ol], the fold induction at 2 µM came to 1.31 and the fold induction at 20 µM is 0.26.

For `NC[C@@H]1CCCN(c2nccc(-c3ccc4ccccc4c3)n2)CC1` [1-{(4R)-1-[4-(2-naphthyl)pyrimidin-2-yl]azepan-4-yl}methanamine], the EC50 amounted to 1190 nM, the fold induction at 2 µM turned out to be 2.66 and the “A = MAX FOLD Induction/DMSO CONTROL” value is 3.950 fold.

On to `NC[C@H]1CCCN(c2nccc(-c3ccc4ccccc4c3)n2)CC1` [1-{(4S)-1-[4-(2-naphthyl)pyrimidin-2-yl]azepan-4-yl}methanamine], for which the response was half-maximal at 1060 nM (EC50), the fold induction at 2 µM amounted to 3.86 and the “A = MAX FOLD Induction/DMSO CONTROL” value stood at 3.640 fold.

On to `NC[C@H]1CC[C@@H](c2nccc(-c3ccc4ccccc4c3)n2)CC1` [1-{cis-4-[4-(2-naphthyl)pyrimidin-2-yl]cyclohexyl}methanamine], for which the fold induction at 2 µM is 3.4.

For `NC[C@H]1CC[C@@H](Oc2nccc(-c3ccc4ccccc4c3)n2)CC1` [1-{cis-4-[(4-naphthalen-2-ylpyrimidin-2-yl)oxy]cyclohexyl}methanamine], the fold induction at 2 µM turned out to be 4.2.

Turning to `O=C(NCCC1CCN(c2nccc(-c3ccc4ccccc4c3)n2)CC1)C(F)(F)F` [2,2,2-trifluoro-N-(2-{1-[4-(2-naphthyl)pyrimidin-2-yl]piperidin-4-yl}ethyl)acetamide], the fold induction at 2 µM is 1.77 and the fold induction at 20 µM came to 1.04.

On to `O=C(NCC[C@H]1CCCN1c1nccc(-c2ccc3ccccc3c2)n1)C(F)(F)F` [2,2,2-trifluoro-N-(2-{(2R)-1-[4-(2-naphthyl)pyrimidin-2-yl]pyrrolidin-2-yl}ethyl)acetamide], for which the EC50 was determined as 1190 nM, the fold induction at 2 µM came out at 0.84, the fold induction at 20 µM is 2.3 and the “A = MAX FOLD Induction/DMSO CONTROL” value is 1.535 fold.

With `O=C(NCC[C@@H]1CCCN1c1nccc(-c2ccc3ccccc3c2)n1)C(F)(F)F` [2,2,2-trifluoro-N-(2-{(2S)-1-[4-(2-naphthyl)pyrimidin-2-yl]pyrrolidin-2-yl}ethyl)acetamide], the fold induction at 2 µM was determined as 1.44 and the fold induction at 20 µM came to 0.89.
